# Measured values taken from US20260001967A1, “SYNTHETIC HEXASACCHARIDES MIMICS OF HEPARIN SHOWING HEPARANASE INHIBITION ACTIVITY” (CENTRO ALTA TECNOLOGIA ISTITUTO DI RICERCHE CHIMICHE E …, priority 2022, published 2026).
# pIC50: −log10 of the molar value. Read-outs that look alike come from different tables or passages of the source.
# Assays:
# heparanase [1] = target: T1, heparanase (Homo sapiens, UniProt Q9Y251); test: Heparanase inhibition assay based on cleavage of fondaparinux, disaccharide assayed by colorimetry (Hammond); format: biochemical; conditions: for Inhibition of heparanase: over the concentration range tested
# T1 sequence (Q9Y251 158-543 limits assumed): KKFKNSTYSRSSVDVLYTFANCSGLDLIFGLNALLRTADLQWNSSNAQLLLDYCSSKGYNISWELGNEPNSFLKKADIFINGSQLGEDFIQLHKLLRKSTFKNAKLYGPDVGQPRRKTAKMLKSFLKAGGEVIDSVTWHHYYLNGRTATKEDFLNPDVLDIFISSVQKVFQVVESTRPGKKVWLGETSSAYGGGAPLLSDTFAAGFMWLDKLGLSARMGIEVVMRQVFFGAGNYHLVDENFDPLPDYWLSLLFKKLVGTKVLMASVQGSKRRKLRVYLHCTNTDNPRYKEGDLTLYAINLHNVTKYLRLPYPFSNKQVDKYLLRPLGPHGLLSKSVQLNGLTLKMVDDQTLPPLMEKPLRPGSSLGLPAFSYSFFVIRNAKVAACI
# T1 sequence (Q9Y251 36-109 limits assumed): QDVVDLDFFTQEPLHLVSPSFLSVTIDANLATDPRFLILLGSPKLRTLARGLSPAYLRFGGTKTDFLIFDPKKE
# Excerpt: To prepare 12 we adopted (Scheme 1) a classical disaccharide building-block approach (C. Tabeur et al., Oligosaccharides corresponding to the regular sequence of heparin: chemical synthesis and interaction with FGF-2. Bioorg. Med. Chem. 1999, 7, 2003-2012) based on the trichloroacetimidate glycosylation method (R. R. Schmidt, W. Kinzy, Adv. Carbohydr. Chem. Biochem. 1992, 50, 21-123). […] The hexasaccharide sequence was completed by reaction under similar conditions with the trichloroacetimidate disaccharide 8 itself classically obtained from 6. […] After saponification to remove the acetyl groups and cleave the methyl esters, preparative HPLC allowed to separate 10 from its β-anomer. […] The glycol-split derivatives were then obtained (Scheme 2). […] The inhibition of heparanase was evaluated using an assay based on the cleavage of the synthetic heparin pentasaccharide fondaparinux (Arixtra®; Aspen). Cleavage of fondaparinux by heparanase, yields a disaccharide that is assayed by colorimetry. The assay was essentially performed as described by Hammond (E. Hammond, C. P. Li, V. Ferro, Development of a colorimetric assay for heparanase activity suitable for kinetic analysis and inhibitor screening, Anal. Biochem. 396 (2010), 112-116, http://doi.10.1016/j.ab.2009.09.007.
# Serial dilutions of the compounds and of the reference roneparstat were tested. IC50 values were ultimately determined using GraphPad software.
# heparanase [2] = target: T1, heparanase; conditions: cited from earlier work
Compound,Inhibition of heparanase (heparanase [1]),further results
COC1OC(COS(=O)(=O)O)C(OC2OC(C(=O)O)C(OC3OC(COS(=O)(=O)O)C(OC4OC(C(=O)O)C(OC5OC(COS(=O)(=O)O)C(OC6OC(C(=O)O)C(OC)C(O)C6OS(=O)(=O)O)C(O)C5NS(=O)(=O)O)C(O)C4O)C(O)C3NS(=O)(=O)O)C(O)C2OS(=O)(=O)O)C(O)C1NS(=O)(=O)O (stereo not drawn) [Compound 13],hardly detectable,"pIC50 (heparanase [1]; Table 1, hexasaccharides, read-out: IC50): < 4.53"
COC1OC(COS(=O)(=O)O)C(OC2OC(C(=O)O)C(OC3OC(COS(=O)(=O)O)C(OC4OC(C(=O)O)C(OC5OC(COS(=O)(=O)O)C(OC6OC(C(=O)O)C(OC)C(O)C6OS(=O)(=O)O)C(O)C5NC(C)=O)C(O)C4O)C(O)C3NC(C)=O)C(O)C2OS(=O)(=O)O)C(O)C1NC(C)=O (stereo not drawn) [Compound 16],hardly detectable,
COC1OC(COS(=O)(=O)O)C(OC2OC(C(=O)O)C(OC3OC(COS(=O)(=O)O)C(OC4OC(C(=O)O)C(OC5OC(COS(=O)(=O)O)C(OC6OC(C(=O)O)C(OC)C(O)C6OS(=O)(=O)O)C(O)C5N)C(O)C4O)C(O)C3N)C(O)C2OS(=O)(=O)O)C(O)C1N (stereo not drawn) [Compound 12],hardly detectable,
"GlcN(Ns,6s)-GlcA(gs)-GlcN(Ns,1,6anh)",,IC50 (heparanase [2]): 2 µg/mL
Roneparstat [reference compound],,IC50 (heparanase [1]): 0.006 µg/mL
